Assay results as given in the supplement of paper PMC10307832.

Assays:
Assay in all cases: relative viability (nuclei count vs DMSO), 5 days (fraction); higher = more cells survive
Carfilzomib + Lapatinib = compound: CC(C)C[C@H](NC(=O)[C@H](CCc1ccccc1)NC(=O)CN1CCOCC1)C(=O)N[C@@H](Cc1ccccc1)C(=O)N[C@@H](CC(C)C)C(=O)[C@@]1(C)CO1 [Carfilzomib] + CS(=O)(=O)CCNCc1ccc(-c2ccc3ncnc(Nc4ccc(OCc5cccc(F)c5)c(Cl)c4)c3c2)o1 [Lapatinib] (partner 2 µM)
Method in brief: (§1)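 One day after seeding in 1536-well plates, lung cancer cell lines were dosed by pin tool. Dosing was either single-drug or a fixed anchor-drug dose plus five library-drug doses (not always all listed) in √10 steps. After 5 days, nuclei were stained in one fix-and-stain step and counted on 4× images, and relative viability is the nuclei count of treated wells over that of vehicle wells, given as the median of duplicate plates.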

Crizotinib + Phenformin = compound: C[C@@H](Oc1cc(-c2cnn(C3CCNCC3)c2)cnc1N)c1c(Cl)ccc(F)c1Cl [Crizotinib] + N=C(N)NC(=N)NCCc1ccccc1 [Phenformin] (partner 250 µM)
Method in brief: as §1

Crizotinib + Decitabine = compound: C[C@@H](Oc1cc(-c2cnn(C3CCNCC3)c2)cnc1N)c1c(Cl)ccc(F)c1Cl [Crizotinib] + Nc1ncn([C@H]2C[C@H](O)[C@@H](CO)O2)c(=O)n1 [Decitabine] (partner 2 µM)
Method in brief: as §1

Crizotinib + Vorinostat = compound: C[C@@H](Oc1cc(-c2cnn(C3CCNCC3)c2)cnc1N)c1c(Cl)ccc(F)c1Cl [Crizotinib] + O=C(CCCCCCC(=O)Nc1ccccc1)NO [Vorinostat] (partner 1 µM)
Method in brief: as §1

Cell Line | relative viability (Carfilzomib + Lapatinib; first compound 0.001 µM) | relative viability (Carfilzomib + Lapatinib; first compound 0.003162 µM) | relative viability (Carfilzomib + Lapatinib; first compound 0.01 µM) | relative viability (Carfilzomib + Lapatinib; first compound 0.03162 µM) | relative viability (Carfilzomib + Lapatinib; first compound 0.1 µM) | relative viability (Crizotinib + Phenformin; first compound 0.01 µM) | relative viability (Crizotinib + Phenformin; first compound 0.03162 µM) | relative viability (Crizotinib + Phenformin; first compound 0.1 µM) | relative viability (Crizotinib + Phenformin; first compound 0.3162 µM) | relative viability (Crizotinib + Phenformin; first compound 1 µM) | relative viability (Crizotinib + Decitabine; first compound 0.01 µM) | relative viability (Crizotinib + Decitabine; first compound 0.03162 µM) | relative viability (Crizotinib + Decitabine; first compound 0.1 µM) | relative viability (Crizotinib + Decitabine; first compound 0.3162 µM) | relative viability (Crizotinib + Decitabine; first compound 1 µM) | relative viability (Crizotinib + Vorinostat; first compound 0.01 µM) | relative viability (Crizotinib + Vorinostat; first compound 0.03162 µM) | relative viability (Crizotinib + Vorinostat; first compound 0.1 µM) | relative viability (Crizotinib + Vorinostat; first compound 0.3162 µM) | relative viability (Crizotinib + Vorinostat; first compound 1 µM)
HCC-827 | 0.175 | 0.164 | 0.166 | 0.258 | 0.154 | 0.359 | 0.397 | 0.412 | 0.346 | 0.397 | 0.333 | 0.241 | 0.328 | 0.306 | 0.321 | 0.873 | 0.602 | 0.917 | 0.884 | –
NCI-H3122 | 1.03 | 0.942 | 1.09 | 0.978 | 0.806 | 0.374 | 0.38 | 0.4 | 0.333 | 0.236 | 0.316 | 0.408 | 0.456 | 0.409 | 0.453 | 0.929 | 0.753 | 0.932 | 0.941 | 0.961
NCI-H2126 | 0.75 | 0.798 | 0.784 | 0.765 | 0.513 | 0.464 | 0.591 | 0.511 | 0.528 | 0.507 | 0.51 | 0.568 | 0.579 | 0.565 | 0.591 | 0.636 | 0.835 | 0.682 | 0.371 | –
HARA | 0.817 | 0.911 | 0.882 | 0.0695 | 0.0699 | 0.468 | 0.501 | 0.462 | – | 0.47 | 0.489 | 0.524 | 0.514 | 0.4 | 0.531 | 0.494 | 0.491 | 0.532 | 0.54 | 0.523
LC-2-ad | 0.861 | 1.14 | 0.984 | 0.153 | 0.12 | 0.572 | 0.6 | 0.544 | 0.463 | 0.544 | 0.846 | 0.896 | 0.809 | – | 0.81 | 0.703 | 0.656 | 0.699 | – | 0.704
UMC-11 | 0.857 | 1.02 | 0.783 | 0.509 | 0.182 | 0.259 | 0.339 | 0.321 | 0.27 | 0.306 | 0.694 | 0.593 | 0.521 | – | 0.643 | 0.271 | 0.424 | 0.407 | 0.356 | 0.427
EMC-BAC-2 | 0.89 | 0.958 | 0.879 | 0.843 | 0.471 | 0.532 | 0.544 | 0.569 | 0.253 | 0.473 | 0.96 | 0.921 | 1.01 | – | 0.967 | 0.524 | 0.418 | 0.494 | – | 0.365
COR-L 105 | 0.348 | 0.377 | 0.386 | 0.324 | 0.289 | 0.384 | 0.516 | 0.406 | 0.431 | 0.492 | 0.583 | 0.675 | 0.658 | 0.629 | 0.713 | 0.824 | 0.96 | 0.696 | 0.858 | 0.893
NCI-H596 | 0.965 | 1.03 | 1.01 | 0.805 | 0.207 | 0.754 | 0.859 | 0.68 | 0.761 | 0.754 | – | 0.993 | 1.01 | 1.08 | 1.11 | 0.638 | 0.681 | 0.742 | 0.62 | 0.748
NCI-H2347 | 0.976 | 1.09 | 0.979 | 0.306 | 0.51 | 0.24 | 0.329 | 0.473 | 0.488 | 0.333 | 0.69 | 0.616 | 0.674 | 0.608 | 0.661 | 0.551 | 0.606 | 0.671 | 0.534 | 0.536
HCC-78 | 0.791 | 0.701 | 0.9 | 0.165 | 0.142 | – | 0.682 | 0.772 | 0.598 | 0.465 | 0.754 | 0.759 | 0.669 | 0.593 | 0.661 | 0.418 | 0.388 | 0.402 | 0.336 | 0.437
NCI-H1650 | – | 0.781 | 0.264 | 0.165 | 0.154 | 0.411 | 0.401 | 0.387 | 0.377 | 0.389 | 0.3 | 0.455 | 0.466 | 0.396 | 0.468 | 0.471 | 0.594 | 0.527 | 0.68 | 0.619
COR-L23 | 0.906 | 1.16 | 0.895 | 0.0642 | 0.0567 | 0.376 | 0.409 | 0.426 | 0.389 | 0.428 | 0.346 | 0.463 | 0.454 | 0.386 | 0.392 | 0.43 | 0.418 | 0.484 | 0.4 | 0.471
NCI-H322M | 0.477 | 0.641 | 0.611 | 0.651 | 0.4 | 0.627 | 0.821 | 0.799 | 0.579 | 0.797 | – | 0.713 | 0.687 | 0.721 | 0.713 | – | 0.884 | 1 | 0.823 | 0.972
NCI-H2085 | 0.663 | 0.843 | 0.714 | 0.444 | 0.252 | 0.626 | 0.807 | 0.703 | – | 0.872 | 0.565 | 0.518 | 0.554 | 0.54 | 0.595 | 0.756 | 0.733 | – | 0.782 | 0.742
NCI-H2023 | 0.734 | 0.979 | 0.925 | 0.302 | 0.0574 | 0.397 | 0.406 | 0.409 | 0.304 | 0.322 | 0.186 | 0.236 | 0.272 | 0.202 | 0.255 | 0.573 | 0.8 | 0.568 | 0.453 | 0.621
LU99A | 1 | 1.03 | 0.972 | 0.521 | 0.2 | 0.761 | 0.857 | 0.786 | 0.769 | 1 | 0.823 | 0.803 | 0.872 | 0.784 | – | 0.448 | 0.515 | 0.512 | 0.459 | 0.507
NCI-H1395 | 0.897 | 1.55 | 0.841 | 0.318 | 0.311 | 0.435 | 0.464 | 0.493 | 0.427 | 0.382 | 0.661 | 0.688 | 0.743 | 0.791 | 0.732 | 0.602 | 0.827 | 0.794 | 0.53 | 0.554
HCC-15 | 0.857 | 0.872 | 0.918 | 0.428 | 0.176 | 0.444 | 0.475 | 0.479 | – | 0.42 | 0.663 | 0.71 | 0.657 | 0.527 | 0.599 | 0.802 | 0.875 | 0.926 | 0.847 | 0.875
RERF-LC-KJ | 0.845 | 0.836 | 0.894 | 0.841 | 0.378 | – | 0.421 | 0.409 | 0.435 | 0.409 | 0.737 | 0.635 | 0.569 | 0.585 | 0.7 | 0.695 | 0.708 | 0.709 | 0.566 | 0.773
NCI-H647 | 0.974 | 1.17 | 0.428 | 0.0287 | 0.0319 | 0.494 | 0.634 | 0.429 | 0.513 | 0.488 | 0.396 | 0.382 | 0.262 | 0.508 | 0.448 | – | 0.71 | 0.575 | 0.764 | 0.643
201T | 1.02 | 0.961 | 1.05 | 1.04 | 0.88 | 0.42 | 0.48 | 0.455 | 0.445 | 0.726 | 0.803 | 0.848 | 0.871 | 0.845 | 0.893 | 0.899 | 1.01 | 0.98 | 0.974 | 1.04
HCC-366 | 0.941 | 1.02 | 0.963 | 0.305 | 0.0207 | 0.597 | 0.609 | 0.65 | – | 0.695 | 0.31 | 0.294 | 0.406 | – | 0.36 | 0.336 | 0.423 | 0.31 | – | 0.403
HOP-62 | 1.16 | 1.21 | 1.06 | 0.308 | 0.0688 | 0.7 | 0.625 | 0.731 | 0.556 | 0.714 | 0.174 | 0.22 | 0.23 | 0.197 | 0.202 | 0.638 | 0.672 | 0.613 | 0.3 | 0.685
NCI-H1734 | 1.03 | 1.11 | 1.02 | 0.317 | 0.203 | 0.358 | 0.368 | 0.385 | – | 0.367 | 0.466 | 0.5 | 0.493 | – | 0.493 | 0.866 | 0.787 | 0.784 | – | 0.807
NCI-H2405 | – | 1.42 | 1.05 | 0.645 | 0.152 | 0.364 | 0.417 | 0.378 | 0.412 | 0.398 | 0.717 | 0.698 | 0.717 | 0.727 | 0.734 | 0.955 | 1.01 | 1.08 | 0.535 | 0.959
NCI-H727 | 0.72 | 0.855 | 0.61 | 0.398 | 0.12 | – | 0.608 | 0.755 | – | 0.511 | 0.763 | 0.769 | 0.836 | 0.763 | 0.796 | 1.16 | 1.1 | 1.3 | 1.16 | 1.37
SW 1573 | 1.17 | 1.22 | 1.04 | 1.03 | 0.121 | 0.418 | 0.376 | 0.39 | 0.302 | 0.391 | 0.431 | 0.529 | 0.483 | 0.404 | 0.456 | 0.824 | 0.947 | 0.729 | 0.55 | 0.671
HCC-44 | 1.07 | 0.985 | 1.16 | 0.878 | 0.245 | 0.225 | 0.263 | 0.264 | 0.173 | 0.13 | 0.959 | 0.943 | – | 0.844 | 0.915 | 1.03 | 1.13 | 1.18 | 1.01 | 1.14
A-427 | 0.925 | 1.09 | 1.09 | 0.972 | 0.157 | 0.303 | 0.349 | 0.419 | – | 0.28 | 0.54 | 0.561 | 0.526 | – | 0.593 | 0.836 | 0.871 | 0.876 | – | 0.899
